ChEMBL document CHEMBL1201862, “PubChem BioAssay data set” (2004)
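Following 48 hours of exposure in 96-well plates, responses at five concentrations were used to interpolate endpoints linearly. The concentration for 50% growth inhibition is given as GI50.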 Activity calls are given as the source filed them. No stated cut-off is given here; in the data, active = GI50 up to about 1.1 µM and inactive = higher.

Legend:
Assay in all cases: NCI anticancer screen, dose series, 48 h
HL-60 = tested on: HL-60
SK-OV-3 = tested on: SK-OV-3
KM12 = tested on: KM12
PC-3 = tested on: PC-3
HOP-92 = tested on: HOP-92
EKVX = tested on: EKVX
MOLT-4 = tested on: MOLT-4
CAKI-1 = tested on: CAKI-1
SF-295 = tested on: SF-295
SF-268 = tested on: SF-268
SNB-75 = tested on: SNB-75
M14 = tested on: M14
K562 = tested on: K562
MCF7 = tested on: MCF7
SNB-19 = tested on: SNB-19
HCT-116 = tested on: HCT-116
Hs-578T = tested on: Hs-578T
OVCAR-5 = tested on: OVCAR-5
SK-MEL-2 = tested on: SK-MEL-2
OVCAR-3 = tested on: OVCAR-3

| SMILES | GI50 (HL-60) | GI50 (SK-OV-3) | GI50 (KM12) | GI50 (PC-3) | GI50 (HOP-92) | GI50 (EKVX) | GI50 (MOLT-4) | GI50 (CAKI-1) | GI50 (SF-295) | GI50 (SF-268) | GI50 (SNB-75) | GI50 (M14) | GI50 (K562) | GI50 (MCF7) | GI50 (SNB-19) | GI50 (HCT-116) | GI50 (Hs-578T) | GI50 (OVCAR-5) | GI50 (SK-MEL-2) | GI50 (OVCAR-3) |
| --- | --- | --- | --- | --- | --- | --- | --- | --- | --- | --- | --- | --- | --- | --- | --- | --- | --- | --- | --- | --- |
| CC1=C2CN(C(=O)OCC(C)C)CCC2C2=C(C(=O)c3ccccc3C2=O)C1C (configuration not stated) | > 10 µM (inactive) | > 10 µM (inactive) | > 10 µM (inactive) | > 10 µM (inactive) | > 10 µM (inactive) | > 10 µM (inactive) | > 10 µM (inactive) | > 10 µM (inactive) | > 10 µM (inactive) | > 10 µM (inactive) | > 10 µM (inactive) | > 10 µM (inactive) | > 10 µM (inactive) | > 10 µM (inactive) |  |  |  |  |  |  |
| CC1CC(N)=Nc2ccccc2N1Cc1ccccc1 (configuration not stated) | 3.96 µM (inactive) | 13.2 µM (inactive) | 15 µM (inactive) | 14.2 µM (inactive) |  | 22.1 µM (inactive) | 3.49 µM (inactive) | 12.2 µM (inactive) | 14.5 µM (inactive) | 13.6 µM (inactive) | 6.89 µM (inactive) | 15.6 µM (inactive) | 4.98 µM (inactive) |  | 15.9 µM (inactive) | 29.3 µM (inactive) | 11.1 µM (inactive) | 31.8 µM (inactive) | 14.3 µM (inactive) | 12.4 µM (inactive) |
| CC(C)[C@H]1C(=O)O[B@-](F)(c2ccccc2)/[N+]1=C\N(C)C | > 100 µM (inactive) | > 100 µM (inactive) |  | > 100 µM (inactive) | > 100 µM (inactive) | > 100 µM (inactive) | > 100 µM (inactive) |  | > 100 µM (inactive) | > 100 µM (inactive) | > 100 µM (inactive) | > 100 µM (inactive) | > 100 µM (inactive) | > 100 µM (inactive) | > 100 µM (inactive) | > 100 µM (inactive) |  | > 100 µM (inactive) |  | > 100 µM (inactive) |
| O=C=NCCCCCCN1C(=O)N2C(c3ccccc3)N(CCCCCCN=C=O)C(=O)N2C1c1ccccc1 (configuration not stated) | > 100 µM (inactive) |  | > 100 µM (inactive) | > 100 µM (inactive) | > 100 µM (inactive) | > 100 µM (inactive) | 62.1 µM (inactive) | > 100 µM (inactive) | > 100 µM (inactive) | > 100 µM (inactive) | > 100 µM (inactive) | > 100 µM (inactive) | > 100 µM (inactive) | > 100 µM (inactive) | > 100 µM (inactive) | > 100 µM (inactive) |  | > 100 µM (inactive) | > 100 µM (inactive) | > 100 µM (inactive) |
| O=C(Cc1ccc(F)cc1)NC1=C(Cl)C(=O)c2ccccc2C1=O | 0.0916 µM (active) | 4.94 µM (inactive) | 3.52 µM (inactive) |  | 1.69 µM (inactive) | 3.65 µM (inactive) | 1.79 µM (inactive) | 4.95 µM (inactive) | 3.83 µM (inactive) | 4.05 µM (inactive) | 2.5 µM (inactive) | 3.16 µM (inactive) | 1.54 µM (inactive) |  | 5.58 µM (inactive) | 2.36 µM (inactive) |  | 3.85 µM (inactive) | 2.43 µM (inactive) | 2.75 µM (inactive) |
| O=c1oc2ccccc2[n+]([O-])c1-c1ccccc1 | > 100 µM (inactive) | > 100 µM (inactive) | > 100 µM (inactive) |  | > 100 µM (inactive) | > 100 µM (inactive) | > 100 µM (inactive) | > 100 µM (inactive) | > 100 µM (inactive) | > 100 µM (inactive) | 49.7 µM (inactive) | > 100 µM (inactive) | > 100 µM (inactive) |  | > 100 µM (inactive) | > 100 µM (inactive) |  | > 100 µM (inactive) | > 100 µM (inactive) | > 100 µM (inactive) |
| COc1cccc2c1C1=CC(=O)CCC1C(C)(C)O2 (configuration not stated) | 60 µM (inactive) | > 100 µM (inactive) | 45.6 µM (inactive) |  | > 100 µM (inactive) | > 100 µM (inactive) | > 100 µM (inactive) | > 100 µM (inactive) | > 100 µM (inactive) | 44.1 µM (inactive) | > 100 µM (inactive) | > 100 µM (inactive) | > 100 µM (inactive) |  | > 100 µM (inactive) | 47.6 µM (inactive) |  | > 100 µM (inactive) | > 100 µM (inactive) | > 100 µM (inactive) |
| CC(SC(=S)N1CCOCC1)c1cc2oc(=O)n(C)c2cc1Cl (configuration not stated) | 39.4 µM (inactive) | > 100 µM (inactive) | > 100 µM (inactive) |  | > 10 µM (inactive) | > 100 µM (inactive) | 56.1 µM (inactive) | > 100 µM (inactive) | > 100 µM (inactive) | > 100 µM (inactive) | 76 µM (inactive) | > 100 µM (inactive) | 33.3 µM (inactive) |  | > 100 µM (inactive) | > 100 µM (inactive) |  | > 100 µM (inactive) | > 100 µM (inactive) | > 100 µM (inactive) |
| COC(=O)C1C=CCON2CCc3c(n(S(=O)(=O)c4ccccc4)c4ccccc34)C12 (configuration not stated) | 27 µM (inactive) | > 61.9 µM (inactive) | 35.2 µM (inactive) |  | > 80.7 µM (inactive) | 41.5 µM (inactive) | 26.9 µM (inactive) | 57.3 µM (inactive) | 59.4 µM (inactive) | > 100 µM (inactive) | 79.3 µM (inactive) | 44.5 µM (inactive) | 17.9 µM (inactive) |  | > 46.6 µM (inactive) | 39.3 µM (inactive) |  | > 100 µM (inactive) | > 100 µM (inactive) | 33.7 µM (inactive) |
| CC1(C)CC(=O)C(=CNc2nc(-c3ccc(Br)cc3)cs2)C(=O)C1 | 27.7 µM (inactive) | 83 µM (inactive) | 34 µM (inactive) | 26.8 µM (inactive) | 33 µM (inactive) | 38.7 µM (inactive) | 27.9 µM (inactive) | 24.9 µM (inactive) | 39 µM (inactive) |  | 6.35 µM (inactive) | 20.5 µM (inactive) |  | 32.6 µM (inactive) | 33.5 µM (inactive) | 26.5 µM (inactive) |  | 42.5 µM (inactive) | 19.4 µM (inactive) | 22.3 µM (inactive) |
| O=S(=O)(c1ccc(-c2nnc(-c3ccc(F)cc3)o2)cc1)c1ccc(-c2nnc(-c3ccc(F)cc3)o2)cc1 | > 100 µM (inactive) | 30.4 µM (inactive) | > 100 µM (inactive) | > 100 µM (inactive) | 82.4 µM (inactive) | > 100 µM (inactive) | > 100 µM (inactive) | > 100 µM (inactive) | 55.3 µM (inactive) | > 100 µM (inactive) | 11.1 µM (inactive) | > 100 µM (inactive) | > 100 µM (inactive) | > 100 µM (inactive) | 34.6 µM (inactive) | > 100 µM (inactive) |  | > 100 µM (inactive) | > 100 µM (inactive) | > 100 µM (inactive) |
